The target in one data set is T1, CYP1A2 (Homo sapiens, UniProt P05177).
T1 construct: from tissue; host or cells: human liver microsomes
T1 sequence (P05177 1-516): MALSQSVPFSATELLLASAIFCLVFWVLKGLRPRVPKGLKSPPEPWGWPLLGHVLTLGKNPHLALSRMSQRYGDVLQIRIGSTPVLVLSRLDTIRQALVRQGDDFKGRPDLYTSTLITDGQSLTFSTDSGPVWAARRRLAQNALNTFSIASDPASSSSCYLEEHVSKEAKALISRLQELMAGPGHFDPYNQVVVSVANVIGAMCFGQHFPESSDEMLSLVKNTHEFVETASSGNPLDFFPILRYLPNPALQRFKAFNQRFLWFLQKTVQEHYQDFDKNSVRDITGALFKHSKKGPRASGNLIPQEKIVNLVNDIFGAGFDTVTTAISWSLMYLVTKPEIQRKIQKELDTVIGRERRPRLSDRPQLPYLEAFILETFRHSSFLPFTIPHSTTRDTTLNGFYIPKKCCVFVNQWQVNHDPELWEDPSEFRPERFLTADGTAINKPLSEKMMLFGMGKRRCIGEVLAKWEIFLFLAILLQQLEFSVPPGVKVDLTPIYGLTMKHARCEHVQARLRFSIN
The data set can be described thus: Cytochrome P450 inhibition, CYP1A2. It counts as in vitro ADME. Conditions: probe Phenacetin (40 μM); 10 μM compound, human liver microsomes, substrate Phenacetin; read-out: Inhibition percentage CYP1A2 (Phenacetin). Here is the method: Example 205 Cytochrome P450 Measurements The cytochrome P450 was measured as the following procedure: 1) A master solution containing phosphate buffer, ultra-pure H2O, MgCl2 solution and human liver microsomes was made according to Table 17, and then 1 μL of 2 mM of compound solution or 1 μL of DMSO (as without inhibitor control) was added to the above master solution. The final concentration of test compounds or control compounds was 10 μM. [table] 2) For CYP1A2 inhibition, 1 μL of specific drug substrate (Phenacetin: 8 mM) was added at the final concentration of 40 μM to the above solution. 8) The mixture was pre-warmed at 37° C. for 5 min. The reaction was started by the addition of 20 μL of 10 mM NADPH solution at the final concentration of 1 mM and carried out at 37° C. 9) The reaction was stopped by addition of 300 μL of cold quench solution (methanol containing internal standards (1S, 500 nM Labetalol, 100 nM Alprazolam and 2 μM Ketoprofen) at the designated time points (Phenacetin: 20 min; Paclitaxel: 10 min; Tolbutamide: 20 min; (s)-Mephenytoin: 20 min; Midazolam: 5 min; Testosterone: 10 min). Samples were vortexed for 5 minutes and centrifuged at 3220 g for 40 minutes at 4° C. And then 100 μL of the supernatant was transferred to a new 96-well plate with 100 μL or 200 μL water (depends on the LC-MS signal response and peak shape) for LC-MS/MS analysis. All experiments were performed in duplicates.

The target of the next data set is T2, CYP2C9 (Homo sapiens, UniProt P11712).
T2 construct: from tissue; host or cells: human liver microsomes
The data set can be described thus: Cytochrome P450 inhibition, CYP2C9. Type of data set: in vitro ADME. Conditions: probe Tolbutamide (200 μM); 10 μM compound, human liver microsomes, substrate Tolbutamide; read-out: Inhibition percentage CYP2C9 (Tolbutamide). The method, then: Example 205 Cytochrome P450 Measurements
The cytochrome P450 was measured as the following procedure:
1) A master solution containing phosphate buffer, ultra-pure H2O, MgCl2 solution and human liver microsomes was made according to Table 17, and then 1 μL of 2 mM of compound solution or 1 μL of DMSO (as without inhibitor control) was added to the above master solution. The final concentration of test compounds or control compounds was 10 μM.
4) For CYP2C9 inhibition, 1 μL of specific drug substrate (Tolbutamide: 40 mM) was added at the final concentration of 200 μM to the above solution.
8) The mixture was pre-warmed at 37° C. for 5 min. The reaction was started by the addition of 20 μL of 10 mM NADPH solution at the final concentration of 1 mM and carried out at 37° C.
9) The reaction was stopped by addition of 300 μL of cold quench solution (methanol containing internal standards (1S, 500 nM Labetalol, 100 nM Alprazolam and 2 μM Ketoprofen) at the designated time points (Phenacetin: 20 min; Paclitaxel: 10 min; Tolbutamide: 20 min; (s)-Mephenytoin: 20 min; Midazolam: 5 min; Testosterone: 10 min). Samples were vortexed for 5 minutes and centrifuged at 3220 g for 40 minutes at 4° C. And then 100 μL of the supernatant was transferred to a new 96-well plate with 100 μL or 200 μL water (depends on the LC-MS signal response and peak shape) for LC-MS/MS analysis.
All experiments were performed in duplicates.
Inhibition percentages for compounds against CYP1A2, CYP2C8, CYP2C9, CYP2C19, and […]

T2 sequence (P11712 whole entry): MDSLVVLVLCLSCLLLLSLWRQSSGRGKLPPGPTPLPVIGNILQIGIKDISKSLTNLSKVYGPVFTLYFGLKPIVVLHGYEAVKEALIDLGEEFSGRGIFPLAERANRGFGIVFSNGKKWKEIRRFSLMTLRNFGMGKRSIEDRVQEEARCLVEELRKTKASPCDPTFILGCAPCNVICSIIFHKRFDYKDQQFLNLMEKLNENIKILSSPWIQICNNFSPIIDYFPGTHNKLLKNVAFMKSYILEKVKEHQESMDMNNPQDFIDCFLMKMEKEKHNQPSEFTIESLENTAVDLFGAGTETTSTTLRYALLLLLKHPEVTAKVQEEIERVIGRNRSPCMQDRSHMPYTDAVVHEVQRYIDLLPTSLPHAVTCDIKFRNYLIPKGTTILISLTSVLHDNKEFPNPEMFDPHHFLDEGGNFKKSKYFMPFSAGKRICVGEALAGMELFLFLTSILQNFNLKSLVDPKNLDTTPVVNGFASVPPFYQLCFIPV

As for `Cc1nnc(-c2cnn3ccc(N4CCCC4c4cc(F)ccc4F)nc23)[nH]1` (centres unmarked) [Comparative compound A, 5-[2-(2,5-Difluorophenyl)pyrrolidin-1-yl]-3-(5-methyl-1H-1,2,4-triazol-3-yl)pyrazolo[1,5-a]pyrimidine, reference compound], the inhibition at 20 min, 10 µM is 29% on CYP1A2 and 25.4% at CYP2C9.
Taken in the same sequence, the figures for `C[C@H](O)c1nnc(-c2cnn3ccc(N4CCC[C@@H]4c4cc(F)ccc4F)nc23)[nH]1` [Compound 4, (S)-1-(5-(5-((R)-2-(2,5-difluorophenyl)pyrrolidin-1-yl)pyrazolo[1,5-a]pyrimidin-3-yl)-4H-1,2,4-triazol-3-yl)ethan-1-ol] were 1.53% and 5.96%.
Taken in the same sequence, the figures for `CC(C)(O)c1nnc(-c2cnn3ccc(N4CCC[C@@H]4c4cc(F)ccc4F)nc23)[nH]1` [Compound 7, (R)-2-(5-(5-(2-(2,5-difluorophenyl)pyrrolidin-1-yl)pyrazolo[1,5-a]pyrimidin-3-yl)-4H-1,2,4-triazol-3-yl)propan-2-ol] were 8.54% and 22.7%.
The matching figures for `OC(c1nnc(-c2cnn3ccc(N4CCC[C@@H]4c4cc(F)ccc4F)nc23)[nH]1)C(F)(F)F` (stereo partly drawn) [Compound 47, 1-(5-(5-((R)-2-(2,5-difluorophenyl)pyrrolidin-1-yl)pyrazolo[1,5-a]pyrimidin-3-yl)-4H-1,2,4-triazol-3-yl)-2,2,2-trifluoroethan-1-ol]: 4.38% and 50.4%.
